Assay results taken from patent US12427210B2, “Compounds comprising a fibroblast activation protein ligand and use thereof” (priority 2019, dated 2025).
Numbered stars: 1 amine (or outer) side, 2 acyl side, 3 side chain; on linkers, the order of the positions; unused ones are H or OH. Bridge positions count the residues as written; N and C are the ends. Peptide text beside a SMILES is read from it. * marks the point of attachment. X1 = O=C(O)CN1CCN(CC(=O)O)CCN(CC(=O)N2CCN(Cc3cc(C[*:1])cc(C[*:2])c3)CC2)CCN(CC(=O)O)CC1; Hexanoyl = CCCCCC(=O)*

What was measured:
[1] = target: T1, Ubiquitin carboxy-terminal hydrolase L3 (Homo sapiens, UniProt P15374); test: biochemical; conditions: read-out: Percentage inhibition (%)
T1 sequence (P15374 1-230): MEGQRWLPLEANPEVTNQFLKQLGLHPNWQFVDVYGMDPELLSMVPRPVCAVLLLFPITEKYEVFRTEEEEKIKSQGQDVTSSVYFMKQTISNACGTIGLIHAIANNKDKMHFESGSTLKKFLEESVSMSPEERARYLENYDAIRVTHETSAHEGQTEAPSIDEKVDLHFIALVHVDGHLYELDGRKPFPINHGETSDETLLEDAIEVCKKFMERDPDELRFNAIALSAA

Matrix metalloprotease1 = target: T2, Matrix metalloprotease1 (Homo sapiens, UniProt P03956); test: biochemical; conditions: read-out: Percentage inhibition (%)
T2 sequence (P03956 100-469): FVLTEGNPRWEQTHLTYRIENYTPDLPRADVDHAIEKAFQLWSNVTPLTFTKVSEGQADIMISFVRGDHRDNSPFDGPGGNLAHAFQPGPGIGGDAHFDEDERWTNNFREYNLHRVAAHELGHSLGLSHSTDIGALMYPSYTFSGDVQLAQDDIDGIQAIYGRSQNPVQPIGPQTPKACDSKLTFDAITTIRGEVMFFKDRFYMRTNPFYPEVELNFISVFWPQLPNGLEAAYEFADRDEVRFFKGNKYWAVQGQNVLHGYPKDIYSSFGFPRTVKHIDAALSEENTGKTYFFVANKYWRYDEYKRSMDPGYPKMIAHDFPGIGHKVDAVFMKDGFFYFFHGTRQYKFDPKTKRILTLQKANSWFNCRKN

Caspase-6 = target: T3, Caspase-6 (Homo sapiens, UniProt P55212); test: biochemical; conditions: read-out: Percentage inhibition (%)
T3 sequence (P55212 24-179 limits assumed): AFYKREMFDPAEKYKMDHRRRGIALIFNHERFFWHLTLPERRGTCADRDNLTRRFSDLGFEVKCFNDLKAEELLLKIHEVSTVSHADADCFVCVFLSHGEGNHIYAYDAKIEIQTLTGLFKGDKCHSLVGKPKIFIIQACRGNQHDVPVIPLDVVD
T3 sequence (P55212 194-293 limits assumed): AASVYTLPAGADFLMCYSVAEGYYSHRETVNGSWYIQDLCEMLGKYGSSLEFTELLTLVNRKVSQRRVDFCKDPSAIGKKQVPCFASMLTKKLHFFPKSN

DPP9 = DPP9 (Homo sapiens, UniProt Q86TI2); test: biochemical; conditions: read-out: Percentage inhibition (%)
[2] = test system: Ca2+ channel (L, dihydropyridine site); conditions: 10 μM
delta (DOP) (h) = delta (DOP) (h) (Homo sapiens, UniProt P41143); test: biochemical; conditions: read-out: % Inhibition of Specific Binding
in vivo = conditions: mouse, iv; for clearance: in vivo; for AUC(0-inf) / C0 / half-life / Vd: plasma; for Vd: mouse plasma
DPP3 = DPP3 (Homo sapiens, UniProt Q9NY33); test: biochemical; conditions: read-out: Percentage inhibition (%)
Sequence of DPP3 (Q9NY33 whole entry, species assumed): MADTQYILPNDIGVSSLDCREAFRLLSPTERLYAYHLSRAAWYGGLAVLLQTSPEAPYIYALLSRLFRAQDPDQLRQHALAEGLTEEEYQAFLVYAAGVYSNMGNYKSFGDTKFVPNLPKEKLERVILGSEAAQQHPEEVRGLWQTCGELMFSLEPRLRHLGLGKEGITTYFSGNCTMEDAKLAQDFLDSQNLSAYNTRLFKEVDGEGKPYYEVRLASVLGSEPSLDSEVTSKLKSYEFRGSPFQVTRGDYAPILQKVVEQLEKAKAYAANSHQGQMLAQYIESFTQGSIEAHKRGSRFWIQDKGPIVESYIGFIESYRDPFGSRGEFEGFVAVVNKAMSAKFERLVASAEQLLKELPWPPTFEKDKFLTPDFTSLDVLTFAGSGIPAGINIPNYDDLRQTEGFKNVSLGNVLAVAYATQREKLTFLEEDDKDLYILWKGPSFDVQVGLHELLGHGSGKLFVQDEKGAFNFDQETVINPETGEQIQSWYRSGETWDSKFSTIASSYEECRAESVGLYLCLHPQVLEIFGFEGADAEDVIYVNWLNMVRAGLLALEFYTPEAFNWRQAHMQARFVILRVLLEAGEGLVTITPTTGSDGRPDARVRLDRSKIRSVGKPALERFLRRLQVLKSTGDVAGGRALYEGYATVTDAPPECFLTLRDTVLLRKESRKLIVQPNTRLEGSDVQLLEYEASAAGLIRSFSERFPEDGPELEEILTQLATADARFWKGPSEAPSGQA

Sequence of DPP9 (Q86TI2 whole entry, species assumed): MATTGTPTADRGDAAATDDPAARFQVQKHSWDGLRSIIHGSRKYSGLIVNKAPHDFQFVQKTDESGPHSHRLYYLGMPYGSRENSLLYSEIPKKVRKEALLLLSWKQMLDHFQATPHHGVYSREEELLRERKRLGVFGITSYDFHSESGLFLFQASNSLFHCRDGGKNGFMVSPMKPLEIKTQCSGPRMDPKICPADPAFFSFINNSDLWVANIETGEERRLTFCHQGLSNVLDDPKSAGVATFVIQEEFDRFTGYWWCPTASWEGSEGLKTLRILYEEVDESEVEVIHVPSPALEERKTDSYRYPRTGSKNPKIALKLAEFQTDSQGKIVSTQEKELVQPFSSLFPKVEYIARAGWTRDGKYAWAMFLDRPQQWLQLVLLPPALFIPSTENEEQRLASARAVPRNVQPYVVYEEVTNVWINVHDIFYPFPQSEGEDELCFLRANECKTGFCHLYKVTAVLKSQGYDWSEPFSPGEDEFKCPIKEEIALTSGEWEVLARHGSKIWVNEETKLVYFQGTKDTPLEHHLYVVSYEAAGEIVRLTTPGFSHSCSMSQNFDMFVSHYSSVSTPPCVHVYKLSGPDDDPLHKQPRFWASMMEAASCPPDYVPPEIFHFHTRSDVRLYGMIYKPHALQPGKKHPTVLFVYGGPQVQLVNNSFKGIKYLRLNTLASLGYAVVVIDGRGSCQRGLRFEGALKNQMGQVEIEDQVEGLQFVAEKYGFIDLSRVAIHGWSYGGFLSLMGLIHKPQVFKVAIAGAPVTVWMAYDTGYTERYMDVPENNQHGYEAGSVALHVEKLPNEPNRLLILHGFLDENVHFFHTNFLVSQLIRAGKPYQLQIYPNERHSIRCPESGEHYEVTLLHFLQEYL
Sequence of delta (DOP) (h) (P41143 whole entry): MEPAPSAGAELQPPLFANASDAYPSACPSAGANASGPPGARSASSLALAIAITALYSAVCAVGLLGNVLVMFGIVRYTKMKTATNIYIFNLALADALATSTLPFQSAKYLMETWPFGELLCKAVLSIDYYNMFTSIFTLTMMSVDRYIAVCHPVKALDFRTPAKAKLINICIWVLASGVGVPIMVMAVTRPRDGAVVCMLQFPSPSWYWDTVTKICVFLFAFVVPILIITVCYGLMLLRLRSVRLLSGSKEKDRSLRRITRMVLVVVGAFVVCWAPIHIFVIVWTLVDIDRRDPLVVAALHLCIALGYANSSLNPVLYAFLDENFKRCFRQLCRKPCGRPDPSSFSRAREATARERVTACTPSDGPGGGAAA

SMILES	inhibition at 1 µM [1]	inhibition at 10 µM [1]	inhibition at 1 µM (Matrix metalloprotease1)	inhibition at 10 µM (Matrix metalloprotease1)	inhibition at 1 µM (Caspase-6)	inhibition at 10 µM (Caspase-6)	inhibition at 1 µM (DPP9)	inhibition at 10 µM (DPP9)	% Inhibition of Specific Binding [2]	inhibition at 10 µM (delta (DOP) (h))	also measured
CCCCCC(=O)N[C@H]1CSCc2cc(cc(CN3CCN(C(=O)CN4CCN(CC(=O)O)CCN(CC(=O)O)CCN(CC(=O)O)CC4)CC3)c2)CSC[C@@H](C(=O)N[C@@H](CC(=O)O)C(N)=O)NC(=O)[C@H](Cc2ccccc2)NC(=O)[C@H](CCC(N)=O)NC(=O)[C@H]([C@@H](C)O)NC(=O)[C@@H]2CCCN2C(=O)[C@@H]2CCCN2C1=O [Compound 3BP-3407, Hex-[Cys(tMeBn(DOTA-PP))-Pro-Pro-Thr-Gln-Phe-Cys]-Asp-NH2] (Hexanoyl-CPPTQFCD-NH2; linker 1-7 via X1)	-1%	14%	-1%	2%	1%	-1%	-1%	0%	42%	0%	–
CCCCCC(=O)N[C@H]1CSCc2cc(CSCCNC(=O)CN3CCN(CC(=O)O)CCN(CC(=O)O)CCN(CC(=O)O)CC3)cc(c2)CSC[C@@H](C(=O)O)NC(=O)[C@H](Cc2ccccc2)NC(=O)[C@H](CCC(N)=O)NC(=O)[C@H]([C@@H](C)O)NC(=O)[C@@H]2CCCN2C(=O)[C@@H]2CCCN2C1=O [Compound 3BP-3554, Hex-[Cys(tMeBn(DOTA-AET))-Pro-Pro-Thr-Gln-Phe-Cys]-OH]	0%	0%	1%	-7%	6%	-3%	-1%	-5%	54%	1%	clearance (in vivo; 4 nmol/kg): 8.03 mL/min/kg; clearance (in vivo; 40 nmol/kg): 11.8 mL/min/kg; clearance (in vivo; 400 nmol/kg): 8.03 mL/min/kg; AUC(0-inf) (in vivo; 4 nmol/kg): 0.0083 µM·h; C0 (in vivo; 4 nmol/kg): 25.6 nM; half-life (in vivo; 4 nmol/kg): 23 min; Vd (in vivo; 4 nmol/kg, Vss, intravenous 4 nmol/kg): 0.21 L/kg; Vd (in vivo; 4 nmol/kg, Vz, intravenous 4 nmol/kg): 0.26 L/kg; AUC(0-inf) (in vivo; 40 nmol/kg): 0.056 µM·h; C0 (in vivo; 40 nmol/kg): 177 nM; half-life (in vivo; 40 nmol/kg): 59 min; Vd (in vivo; 40 nmol/kg, Vss, intravenous 40 nmol/kg): 0.32 L/kg; Vd (in vivo; 40 nmol/kg, Vz, intravenous 40 nmol/kg): 1.02 L/kg; AUC(0-inf) (in vivo; 400 nmol/kg): 0.961 µM·h; C0 (in vivo; 400 nmol/kg): 4970 nM; half-life (in vivo; 400 nmol/kg): 40 min; Vd (in vivo; 400 nmol/kg, Vss, intravenous 400 nmol/kg): 0.1 L/kg; Vd (in vivo; 400 nmol/kg, Vz, intravenous 400 nmol/kg): 0.21 L/kg; inhibition at 1 µM (DPP3): 2%; inhibition at 10 µM (DPP3): -1%
